pIC50, pKi: −log10 of the molar value. Entries after “also recorded” stand apart in the source; their conditions may differ. Counter-ions that a name gives are not always drawn. Like-named read-outs stand apart in the source and are kept apart here.
Columns and labels:
SphK2 [1] = target: T1, SphK2 (Homo sapiens (Human), UniProt Q9NRA0); assay: ADP-Glo kinase assay, SphK2; format: biochemical; conditions: for pIC50: ADP-Glo assay, 50 μM ATP, recombinant human SphK2; for selectivity/specificity for SphK2 over SphK1: 125 μM of each compound, SphK2 versus SphK1, FIG. 5
Source text: The bioluminescence-based kinase assay such as ADP-Glo assay measures ADP formed from a kinase reaction with a luciferase. Upon the completion of a kinase reaction, the remaining ATP is depleted, the ADP produced in the kinase reaction is then converted to ATP and the detection is based on a sensitive and robust bioluminescence reaction. It has a broad linear range of ATP concentrations and high dynamic range. To determine the inhibition activity of the compounds, the ADP-Glo kinase assay was used which was able to detect down to 20% of 1 μM ATP to ADP conversion (FIG. 4A).
ADP-Glo (Promega, Madison, WI) kinase assay were used to evaluate the kinase activity of SphK. ATP to ADP standard curves were prepared in the kinase buffer to assess the linearity of the assay in order to calculate the amount of ADP produced in each tested conditions (FIG. 4A). SB10 (tenfold signal to background ra-tio) of SphK was also determined to evaluate the enzyme perfor-mance and to optimize the kinase reaction condition in this system. In brief, for SphK2, […], 100 μM of D-erythro-Sphingosine (Tocris Bioscience, Minneapolis, MN), and 2 ng of recombinant human SphK2 (R&D Systems, Minneapolis, MN) with desired concentration of each synthesized compound were used for SphK2 kinase reaction. For SphK1, exact same reaction condition was used except 0.5 ng of recombinant human SphK1 was used.
To evaluate the SphK selectivity of each compound, 125 μM of each compound in reaction buffer ([…] Tris, pH 8.0, […] MgCl2, and 0.1 mg/mL BSA) with 5% DMSO was incubated with either SphK1 or SphK2 in a 384-well solid white low volume microplate (Corning, Corning, NY), and the reaction was initiated by adding mixture of ATP and D-erythro-Sphingosine to a total volume of 5 μL, after 1 h incubation at room temperature with gentle shaking, the reaction was stopped by adding equal volume of ADP-Glo buffer and incubated for another hour to remove excess amount of ATP from the reaction. Afterwards, 10 μL of kinase detection reagent was added, mixed, and incubated for 30 min under dark. Luminescence output was recorded using a SpectraMax M5 Multi-Mode Microplate Readers (Molecular Devices, San Jose, CA), an integration time of 500 ms was used. All reactions were performed in triplicate. The enzyme activity of SphK in the presence of each compound was normalized to the no treatment control. […] The final data was calculated using Prism 7.0 (GraphPad Software, La Jolla, CA), IC50 was determined using Nonlinear regression (curve fit) four parameters dose-response calculations.

SphK2 [2] = target: T1, SphK2; conditions: SphK2-selective inhibitors; cited from earlier work
U-251 MG cells = assay: CellTiter96 MTS cell viability dose response, U-251 MG; format: cell-based, human; conditions: read-out: IC50 (cell viability)
Procedure: The anti-tumor activity of these inhibitors was further examined at different doses.
Cell viability was determined using CellTiter96 MTS Assay and compared to DMSO treated control cells. IC50 values were calculated by non-linear regression analysis of the dose-response curve using GraphPad Prism version 8.00 for Windows (GraphPad Software).

[3] = tested on: U-251 MG human glioblastoma cells; assay: U-251 MG cell viability, Hoechst 33258/propidium iodide imaging, 125 μM, 24 h; format: cell-based
Procedure: Cells were seeded into a 96-well microplate (Corning, Corning, NY) at 3000 cells/well and incubated for approximately 16 h. […] Cells were imaged using MetaXpress High-Content Image Acquisition and Analysis Software 6.1 and ImageXpress Micro XLS Wide-field High-Content Analysis System (Molecular Devices, San Jose, CA). Images were taken with a Nikon 10 CFI Plan Fluor objective. For all samples, triplicated measurements were performed.

T1 sequence (Q9NRA0 whole entry): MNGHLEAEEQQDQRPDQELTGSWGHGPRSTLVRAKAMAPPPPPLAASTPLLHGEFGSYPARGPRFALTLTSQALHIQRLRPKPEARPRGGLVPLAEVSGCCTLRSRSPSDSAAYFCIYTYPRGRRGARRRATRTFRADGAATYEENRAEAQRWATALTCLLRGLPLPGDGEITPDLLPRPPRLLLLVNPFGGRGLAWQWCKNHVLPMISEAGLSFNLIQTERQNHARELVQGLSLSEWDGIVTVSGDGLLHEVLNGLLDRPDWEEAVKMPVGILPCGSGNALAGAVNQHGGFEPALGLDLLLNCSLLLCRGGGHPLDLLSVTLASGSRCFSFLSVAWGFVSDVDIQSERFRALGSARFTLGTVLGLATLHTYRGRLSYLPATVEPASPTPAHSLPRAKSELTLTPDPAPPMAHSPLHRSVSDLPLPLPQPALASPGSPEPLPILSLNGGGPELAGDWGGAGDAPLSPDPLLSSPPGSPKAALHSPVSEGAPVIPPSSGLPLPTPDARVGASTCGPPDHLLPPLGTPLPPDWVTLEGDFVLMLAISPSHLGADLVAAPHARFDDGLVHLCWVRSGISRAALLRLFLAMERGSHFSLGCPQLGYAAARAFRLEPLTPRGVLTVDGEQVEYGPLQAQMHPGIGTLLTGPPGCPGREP

Q: What does the source list for `N=C(N)N1CCC[C@H]1Cc1nc(-c2ccc(Nc3nc(-c4cccc(C(F)(F)F)c4)cs3)cc2)no1` [Compound 13, reference compound]?
A: pIC50 (SphK2 [1]): 6.55; pKi (SphK2 [2]): 7.05

Q: With `Cl.N=C(N)N1CCC[C@H]1Cc1nc(-c2ccc(Cn3cc(-c4ccccc4)nn3)cc2)no1` [Compound 21a, (S)-2-((3-(4-((4-Phenyl-1H-1,2,3-triazol-1-yl)methyl)phenyl)-1,2,4-oxadiazol-5yl)methyl)pyrrolidine-1-carboximidamide hydrochloride] as the compound, how does the pIC50 (U-251 MG cells; Homo sapiens, U-251, 72 h) read?
A: 4.77

Q: And the “antitumor activity / reduction of U-251 MG cell viability (in words)” value (shortened to “antitumor activity / reduction”) ([3]; hydrochloride)?
A: high anti-tumor activity; also recorded: significant reduction

Q: And the pIC50 (SphK2 [1])?
A: 6.40

Q: For `Cl.N=C(N)N1CCC[C@H]1Cc1nc(-c2ccc(Cn3cc(-c4ccccn4)nn3)cc2)no1` [Compound 21c, (S)-2-((3-(4-((4-(Pyridin-2-yl)-1H-1,2,3-triazol-1-yl)methyl)phenyl)-1,2,4-oxadiazol-5-yl)methyl)pyrrolidine-1-carboximidamide hydrochloride], which “selectivity/specificity for SphK2 over SphK1” value (“selectivity/specificity” for short) (SphK2 [1]; hydrochloride) is on record?
A: high selectivity; also recorded: highest specificity

Q: And the pIC50 (SphK2 [1])?
A: 6.34

Q: For `CCCCc1cn(Cc2ccc(-c3noc(C[C@@H]4CCCN4C(=N)N)n3)cc2)nn1.Cl` [Compound 21d, (S)-2-((3-(4-((4-Butyl-1H-1,2,3-triazol-1-yl)methyl)phenyl)-1,2,4-oxadiazol-5-yl)methyl)pyrrolidine-1-carboximidamide hydrochloride], which “SphK2 inhibitory activity (in words)” value (SphK2 [1]) is on record?
A: no inhibitory activity

Q: What about the “selectivity/specificity” value (SphK2 [1]; hydrochloride) of the same compound?
A: lowest specificity; also recorded: no selectivity

Q: With `COc1ccc(-c2cn(Cc3ccc(-c4noc(C[C@@H]5CCCN5C(=N)N)n4)cc3)nn2)cc1.Cl` [Compound 21e, (S)-2-((3-(4-((4-(4-Methoxyphenyl)-1H-1,2,3-triazol-1-yl)methyl)phenyl)-1,2,4-oxadiazol-5-yl)methyl)pyrrolidine-1-carboximidamide hydrochloride] as the compound, how does the “antitumor activity / reduction” value [3] read?
A: comparable reduction

Q: What about the “selectivity/specificity” value (SphK2 [1]; hydrochloride) of the same compound?
A: high selectivity; also recorded: highest specificity

Q: What about the pIC50 (SphK2 [1]) of the same compound?
A: 6.19

Q: Which “SphK2 inhibitory activity (in words)” value (SphK2 [1]) does the source give for `Cl.N=C(N)N1CCC[C@H]1Cc1nc(-c2ccc(Cn3cc(C4CC4)nn3)cc2)no1` [Compound 21f, (S)-2-((3-(4-((4-Cyclopropyl-1H-1,2,3-triazol-1-yl)methyl)phenyl)-1,2,4-oxadiazol-5-yl)methyl)pyrrolidine-1-carboximidamide hydrochloride] here?
A: no inhibitory activity

Q: What about the “selectivity/specificity” value (SphK2 [1]; hydrochloride) of the same compound?
A: lowest specificity; also recorded: no selectivity

Q: With `Cl.Cn1cc(-c2cn(Cc3ccc(-c4noc(C[C@@H]5CCCN5C(=N)N)n4)cc3)nn2)cn1` [Compound 21g, (S)-2-((3-(4-((4-(1-Methyl-1H-pyrazol-4-yl)-1H-1,2,3-triazol-1-yl)methyl)phenyl)-1,2,4-oxadiazol-5-yl)methyl)pyrrolidine-1-carboximidamide hydrochloride] as the compound, how does the “selectivity/specificity” value (SphK2 [1]; hydrochloride) read?
A: high selectivity; also recorded: highest specificity

Q: What about the pIC50 (SphK2 [1]) of the same compound?
A: 6.63

Q: Which results are given for `Cl.N=C(N)N1CCC[C@H]1c1nc(-c2ccc(Cn3cc(-c4ccc(C(F)(F)F)cc4)nn3)cc2)no1` [Compound 25b, (S)-2-((3-(4-((4-(4-(Trifluoromethyl)phenyl)-1H-1,2,3-triazol-1-yl)methyl)phenyl)-1,2,4-oxadiazol-5-yl)pyrrolidine-1-carboximidamide hydrochloride]?
A: pIC50 (U-251 MG cells; U-251 MG cells, 72 h, MTS): 4.91; pIC50 (SphK2 [1]): 6.44

Q: For `Cl.N=C(N)N1CCC[C@H]1c1nc(-c2ccc(Cn3cc(-c4ccc(C(F)(F)F)cc4)nn3)cc2)no1` [Compound 25b], which “antitumor activity / reduction” value ([3]; hydrochloride) is on record?
A: high anti-tumor activity; also recorded: higher antitumor activity; also recorded: tremendously decreased; also recorded: significant reduction

Q: Which results are given for `Cl.N=C(N)N1CCC[C@H]1c1nc(-c2ccc(Cn3cc(-c4ccccn4)nn3)cc2)no1` [Compound 25c, (S)-2-(3-(4-((4-(Pyridin-2-yl)-1H-1,2,3-triazol-1-yl)methyl)phenyl)-1,2,4-oxadiazol-5-yl)pyrrolidine-1-carboximidamide hydrochloride]?
A: selectivity/specificity for SphK2 over SphK1 (SphK2 [1]): lowest specificity; pIC50 (SphK2 [1]; hydrochloride): 6.05

Q: Which results are given for `COc1ccc(-c2cn(Cc3ccc(-c4noc([C@@H]5CCCN5C(=N)N)n4)cc3)nn2)cc1.Cl` [Compound 25d, (S)-2-((3-(4-((4-(4-Methoxyphenyl)-1H-1,2,3-triazol-1-yl)methyl)phenyl)-1,2,4-oxadiazol-5-yl)-pyrrolidine-1-carboximidamide hydrochloride]?
A: pIC50 (U-251 MG cells; U-251 MG cells, 72 h, MTS): 4.11; pIC50 (SphK2 [1]): 6.58

Q: For `COc1ccc(-c2cn(Cc3ccc(-c4noc([C@@H]5CCCN5C(=N)N)n4)cc3)nn2)cc1.Cl` [Compound 25d], which “antitumor activity / reduction” value [3] is on record?
A: comparable reduction

Q: With `N=C(N)N1CCC[C@H]1c1nc(-c2ccc(Cn3cc(-c4cccs4)nn3)cc2)no1` [Compound 25e, (S)-2-((3-(4-((4-(Thiophen-2-yl)-1H-1,2,3-triazol-1-yl)methyl)phenyl)-1,2,4-oxadiazol-5-yl)-pyrrolidine-1-carboximidamide hydrochloride] as the compound, how does the pIC50 (SphK2 [1]) read?
A: 6.16

Q: With `CCCCc1cn(Cc2ccc(-c3noc([C@@H]4CCCN4C(=N)N)n3)cc2)nn1.Cl` [Compound 25f, (S)-2-((3-(4-((4-Butyl-1H-1,2,3-triazol-1-yl)methyl)phenyl)-1,2,4-oxadiazol-5-yl)pyrrolidine-1-carboximidamide hydrochloride] as the compound, how does the pIC50 (SphK2 [1]) read?
A: 6.60

Q: For `CCCCc1cn(Cc2ccc(-c3noc([C@@H]4CCCN4C(=N)N)n3)cc2)nn1.Cl` [Compound 25f], which “selectivity/specificity” value (SphK2 [1]) is on record?
A: high selective

Q: With `N=C(N)N1CCC[C@H]1c1nc(-c2ccc(Cn3cc(-c4ccc(F)cc4)nn3)cc2)no1` [Compound 25g, (S)-2-((3-(4-((4-(4-Fluorophenyl)-1H-1,2,3-triazol-1-yl)methyl)phenyl)-1,2,4-oxadiazol-5-yl)-pyrrolidine-1-carboximidamide hydrochloride] as the compound, how does the pIC50 (SphK2 [1]) read?
A: 6.41

Q: With `Cl.N=C(N)N1CCC[C@H]1c1nc(-c2ccc(Cn3cc(C4CC4)nn3)cc2)no1` [Compound 25h, (S)-2-((3-(4-((4-Cyclopropyl-1H-1,2,3-triazol-1-yl)methyl)phenyl)-1,2,4-oxadiazol-5-yl)pyrrolidine-1-carboximidamide hydrochloride] as the compound, how does the pIC50 (SphK2 [1]) read?
A: 6.61

Q: Which “selectivity/specificity” value (SphK2 [1]) does the source give for `Cl.N=C(N)N1CCC[C@H]1c1nc(-c2ccc(Cn3cc(C4CC4)nn3)cc2)no1` [Compound 25h] here?
A: high selective

Q: With `Cl.N=C(N)C1(c2nc(-c3ccc(Cn4cc(-c5ccccc5)nn4)cc3)no2)CC1` [Compound 29a, 1-(3-(4-((4-Phenyl-1H-1,2,3-triazol-1-yl)methyl)phenyl)-1,2,4-oxadiazol-5-yl)cyclopropanecarboximidamide hydrochloride] as the compound, how does the “selectivity/specificity” value (SphK2 [1]) read?
A: highly selective

Q: What about the pIC50 (SphK2 [1]) of the same compound?
A: 6.58

Q: With `Cn1cc(-c2cn(Cc3ccc(-c4noc(C5(C(=N)N)CC5)n4)cc3)nn2)cn1` [Compound 29b, hydrochloride] as the compound, how does the “selectivity/specificity” value (SphK2 [1]) read?
A: highly selective

Q: With `Cn1nccc1-c1cn(Cc2ccc(-c3noc(C4(C(=N)N)CC4)n3)cc2)nn1` [Compound 29b, hydrochloride] as the compound, how does the pIC50 (SphK2 [1]) read?
A: 6.57

Q: With `N=C(N)C1(c2nc(-c3ccc(Cn4cc(C5CC5)nn4)cc3)no2)CC1` [Compound 29c, 1-(3-(4-((4-Cyclopropyl-1H-1,2,3-triazol-1-yl)methyl)phenyl)-1,2,4-oxadiazol-5-yl)cyclopropanecarboximidamide hydrochloride] as the compound, how does the pIC50 (SphK2 [1]) read?
A: 6.14

Q: Which “reduction of viability of U-251 MG cells” value ([3]; versus no treatment control) does the source give for “ABC294640 [Compound 7, reference compound]” here?
A: approximately 50%

Reference: patent publication US12037329B2, “SphK inhibitors and methods of making and using same” (Washington University, priority 2021, dated 2024)
